The values that follow come from doi:10.1101/2025.07.03.662851v1 (biorxiv, 2025).

The assay concerns the target T1, recombinant wild-type human asparagine synthetase (ASNS) (Homo sapiens, UniProt P08243).
T1 sequence (P08243 2-561): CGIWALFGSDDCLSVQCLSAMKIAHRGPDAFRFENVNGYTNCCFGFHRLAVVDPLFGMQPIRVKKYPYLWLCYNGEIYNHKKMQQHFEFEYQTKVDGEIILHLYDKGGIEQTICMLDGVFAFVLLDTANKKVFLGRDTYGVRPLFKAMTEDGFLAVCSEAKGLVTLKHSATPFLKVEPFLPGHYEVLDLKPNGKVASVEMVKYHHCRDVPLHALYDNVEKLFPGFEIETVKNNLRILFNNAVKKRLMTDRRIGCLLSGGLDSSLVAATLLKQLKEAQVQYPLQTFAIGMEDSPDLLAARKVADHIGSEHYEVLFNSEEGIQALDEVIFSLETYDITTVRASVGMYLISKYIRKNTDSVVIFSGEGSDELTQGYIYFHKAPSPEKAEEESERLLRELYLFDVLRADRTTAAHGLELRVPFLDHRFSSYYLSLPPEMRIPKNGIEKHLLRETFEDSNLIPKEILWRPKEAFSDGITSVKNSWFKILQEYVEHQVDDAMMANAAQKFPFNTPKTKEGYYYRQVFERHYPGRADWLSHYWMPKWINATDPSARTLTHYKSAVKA
Kind of assay: PPi production, continuous NADH-coupled assay. It is filed as biochemical.

On to `CC[C@H](N)C(=O)N1C[C@@H](c2ccc(F)cc2)[C@H](O)[C@@H]1C(=O)NC(c1ccccc1)c1ccccc1` [ASX-173], for which the inhibitory constant (Ki) came to 400 pM.

As usually defined, the Ki is a measure of affinity in units of concentration, obtained from inhibition or displacement.
